Reference: ChEMBL document CHEMBL1134277, “N-[3-(2-Dimethylaminoethyl)-2-methyl-1H- indol-5-yl]-4-fluorobenzamide: a potent, selective, and orally active 5-HT(1F) receptor agonist potentially useful for migraine therapy” (J Med Chem, 2001)
pKi: −log10 of the molar value.

What was measured:
[1] = Selectivity is the binding affinity towards human 5-HT1D receptor to that of human 5-HT1F receptor
[2] = target: T1, 5-hydroxytryptamine receptor 1F (Homo sapiens, UniProt P30939); test: Binding affinity towards human 5-hydroxytryptamine 1F receptor
T1 sequence (P30939 whole entry): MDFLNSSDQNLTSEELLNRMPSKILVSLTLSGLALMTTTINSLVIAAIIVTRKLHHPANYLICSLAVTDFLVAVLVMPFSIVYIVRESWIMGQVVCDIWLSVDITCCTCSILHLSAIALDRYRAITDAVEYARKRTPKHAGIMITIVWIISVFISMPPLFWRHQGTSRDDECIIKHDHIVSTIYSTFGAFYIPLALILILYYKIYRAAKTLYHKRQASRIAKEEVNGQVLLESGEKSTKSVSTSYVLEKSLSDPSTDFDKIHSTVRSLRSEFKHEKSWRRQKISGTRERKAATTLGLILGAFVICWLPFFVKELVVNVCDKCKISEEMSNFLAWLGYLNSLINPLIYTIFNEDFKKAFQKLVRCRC

[3] = Selectivity is the binding affinity towards human 5-HT1B receptor to that of human 5-HT1F receptor
[4] = Selectivity is the binding affinity towards human 5-HT1A receptor to that of human 5-HT1F receptor
[5] = target: T2, 5-hydroxytryptamine receptor 1F (Homo sapiens) (UniProt P30939); test: In vitro agonist potency against human 5-hydroxytryptamine 1F receptor; type: functional
T2 sequence (whole entry): T1 sequence (P30939 whole entry)

Which results are given for `CN(C)CCc1c[nH]c2cccc(NC(=O)c3ccc(F)cc3)c12`?
Selectivity [1]: 3; pKi [2]: 8.42; Selectivity [3]: 9; Selectivity [4]: 3

Which Emax [5] does the source give for `CNS(=O)(=O)Cc1ccc2[nH]cc(CCN(C)C)c2c1` here?
The Emax was 98%.
